Assay results as given in article PMC11285948, “The effects of CYP2B6 inactivators on the metabolism of ciprofol” (PLOS ONE, 2024).
“And” between values parts separate entries of the source, which are not always exact repeats. Equal values may be shown once.

Legend:
[1] = system: recombinant human CYP2B6 enzyme; settings: cited from earlier work; for inhibition of recombinant human CYP2B6 enzyme activity: psoralen: ref Ji et al. 13, clopidogrel (bupropion as substrate): ref 31, 32
[2] = system: ciprofol metabolism in rat liver microsomes (RLMs); assay: Effects of psoralen and clopidogrel on ciprofol metabolism in RLM incubation system (substrate elimination, HPLC-MS/MS); type: in vitro ADME; settings: for IC50: 10 min preincubation, n = 3; for Relative residual activity (ciprofol metabolism): samples 1-3 and Mean; for degree of inhibitory effect on ciprofol metabolism: grading after ref 23
Experimental: (§1) The volume of the incubation system was 200 μL and included 2 μL of substrate (ciprofol), 8 μL of rat liver microsomes (RLMs) or 6 μL of human liver microsomes (HLMs), 12 μL of NADPH generation system of solution (solution A 10 μL, solution B 2 μL), and the remaining volume was PBS. The incubation was performed in a water bath at a constant temperature of 37°C, and each sample was incubated three times in parallel.
(§2) The incubation system was removed from the water bath, and the reaction was terminated immediately by adding 800 μL of reaction termination solution (acetonitrile solution containing 5 μg·mL^-1 D6-ciprofol at 4°C). The mixture was vortexed for 2 min and centrifuged for 15 min, after which the supernatant was transferred to an autosampler vial for HPLC-MS/MS detection.
(§3) The incubation system was prepared according to the optimal incubation conditions, and different concentrations of psoralen or clopidogrel solution were added to the blank incubation system at concentrations of 0, 5, 12.5, 25, 50, 75, 100, 150, and 200 μmol·L^-1 and 0, 0.2, 0.5, 1, 2, 5, 10, 25, and 50 μmol·L^-1, respectively. The incubation system was preincubated in a water bath (37°C) for 10 min, and ciprofol was added to the system and subsequently incubated subsequently. The effects of psoralen and clopidogrel on the metabolism of ciprofol were investigated based on ΔC.
(§4) The substrate elimination method was employed in this study, and GraphPad Prism 8.0.2 software was used for statistical processing, including determination of the kinetic parameters of ciprofol metabolism and the IC50 values of psoralen and clopidogrel for ciprofol metabolism. The maximum velocity (Vmax), Michaelis constant (Km) and intrinsic clearance (CLint) were calculated using the […]: V=Vmax×[S]/Km+[S] CLint=Vmax/Km

SD rats = assay: Duration of loss of righting reflex (LORR) after ciprofol injection in rats; type: in vivo, rat; settings: psoralen 27 mg·kg^-1 or clopidogrel 7.5 mg·kg^-1 gavage daily 7 d, then ciprofol 2.4 mg·kg^-1 i.v.
Experimental: Twenty-four SD rats were randomly and equally divided into three groups: the control group, psoralen group and clopidogrel group. The administration scheme was as follows: the control group received 0.5% carboxy methyl cellulose by gavage (1 mL·200 g^-1), the psoralen group received 27 mg·kg^-1 psoralen by gavage, and the clopidogrel group was gavaged with 7.5 mg·kg^-1 clopidogrel. […] All rats were treated once daily for seven days. Each rat was injected with 2.4 mg·kg^-1 ciprofol via the tail vein 12 h after the end of dosing on Day 7. Rats that received ciprofol injection were placed on a flat and soft insulation pad. Timekeeping began when the rats were in the supine position and lost the righting reflex and ended when the rats could turn to the prone position successfully. The duration of loss of righting reflex (LORR) in each rat was measured. During this period, approximately 300 μL of blood was collected from the inner canthus at 2, 4, 8, 12, 16, 20, 30, 45, and 60 min after ciprofol administration, and the plasma was separated. The plasma was processed and measured as described in Section 2.4.3, and DAS 2.0 software and a noncompartmental model were used to analyse the pharmacokinetic parameters.
IBM SPSS Statistics 27 software was used to analyse the main pharmacokinetic parameters, and GraphPad Prism 8.0.2 software was used for graphical visualization. […]

[3] = system: ciprofol metabolism in human liver microsomes (HLMs); assay: Effects of psoralen and clopidogrel on ciprofol metabolism in HLM incubation system (substrate elimination, HPLC-MS/MS); type: in vitro ADME; settings: for IC50: 10 min preincubation, n = 3; for Relative residual activity (ciprofol metabolism): samples 1-3 and Mean; for degree of inhibitory effect on ciprofol metabolism: grading after ref 23
Experimental: as §1, §2, §3, §4

ciprofol metabolism = system: ciprofol metabolism; parameters: method as in PMID 37309663; settings: clinical trials NCT03758469, NCT04145583, NCT05181007; cited from earlier work

## COC(=O)[C@H](c1ccccc1Cl)N1CCc2sccc2C1 [clopidogrel]
[1]
  inhibition of recombinant human CYP2B6 enzyme activity: strongly inhibits
[1]; recombinant human CYP2B6, bupropion as substrate
  inactivation potency relative to its thiolactone metabolite: 11 times
[2]
  IC50: 6.38 µM
  degree of inhibitory effect on ciprofol metabolism: moderate inhibitory effects
[2]; Cclopidogrel 0.20 μM
  Relative residual activity (ciprofol metabolism): 96.32% and 84.60% and 95.79%
[2]; Cclopidogrel 0.50 μM
  Relative residual activity (ciprofol metabolism): 90.44% and 83.76% and 96.63%
[2]; Cclopidogrel 1.00 μM
  Relative residual activity (ciprofol metabolism): 88.66% and 86.92% and 76.64%
[2]; Cclopidogrel 2.00 μM
  Relative residual activity (ciprofol metabolism): 75.16% and 58.26% and 69.88%
[2]; Cclopidogrel 5.00 μM
  Relative residual activity (ciprofol metabolism): 50.35% and 43.15% and 60.40%
[2]; Cclopidogrel 10.00 μM
  Relative residual activity (ciprofol metabolism): 42.20% and 50.96% and 39.90%
[2]; Cclopidogrel 25.00 μM
  Relative residual activity (ciprofol metabolism): 32.17% and 28.83% and 23.03%
[2]; Cclopidogrel 50.00 μM
  Relative residual activity (ciprofol metabolism): 11.08% and 18.95% and 13.85%
SD rats
  prolongation of duration of LORR compared with control group: 23.0%
[3]
  IC50: 2.56 µM
  degree of inhibitory effect on ciprofol metabolism: moderate inhibitory effects
[3]; Cclopidogrel 0.20 μM
  Relative residual activity (ciprofol metabolism): 88.53% and 84.40% and 91.91%
[3]; Cclopidogrel 0.50 μM
  Relative residual activity (ciprofol metabolism): 70.42% and 76.69% and 80.24%
[3]; Cclopidogrel 1.00 μM
  Relative residual activity (ciprofol metabolism): 66.15% and 57.16% and 70.67%
[3]; Cclopidogrel 2.00 μM
  Relative residual activity (ciprofol metabolism): 58.07% and 44.78% and 46.16%
[3]; Cclopidogrel 5.00 μM
  Relative residual activity (ciprofol metabolism): 36.69% and 31.97% and 37.99%
[3]; Cclopidogrel 10.00 μM
  Relative residual activity (ciprofol metabolism): 32.45% and 25.93% and 29.26%
[3]; Cclopidogrel 25.00 μM
  Relative residual activity (ciprofol metabolism): 23.23% and 27.69% and 23.00%
[3]; Cclopidogrel 50.00 μM
  Relative residual activity (ciprofol metabolism): 19.78% and 11.54% and 13.21%

## Cc1cccc(Nc2ccccc2C(=O)O)c1C [mefenamic acid]
Ciprofol metabolism
  clinical effect on ciprofol metabolism: no clinical effect

## O=c1ccc2cc3ccoc3cc2o1 [psoralen]
[1]
  inhibition of recombinant human CYP2B6 enzyme activity: moderately inhibit
[2]
  IC50: 63.3 µM
  degree of inhibitory effect on ciprofol metabolism: mild inhibitory effects
[2]; Cpsoralen 5 μM
  Relative residual activity (ciprofol metabolism): 93.09% and 97.46% and 90.99%
[2]; Cpsoralen 5 μM, mean
  Relative residual activity (ciprofol metabolism): 93.85%
[2]; Cpsoralen 12.5 μM
  Relative residual activity (ciprofol metabolism): 88.25% and 94.23% and 84.23%
[2]; Cpsoralen 12.5 μM, mean
  Relative residual activity (ciprofol metabolism): 88.90%
[2]; Cpsoralen 25 μM
  Relative residual activity (ciprofol metabolism): 79.18% and 75.1% and 87.55%
[2]; Cpsoralen 25 μM, mean
  Relative residual activity (ciprofol metabolism): 80.61%
[2]; Cpsoralen 50 μM
  Relative residual activity (ciprofol metabolism): 57.26% and 67.87% and 65.65%
[2]; Cpsoralen 50 μM, mean
  Relative residual activity (ciprofol metabolism): 63.59%
[2]; Cpsoralen 75 μM
  Relative residual activity (ciprofol metabolism): 32.92% and 44.27% and 51.97%
[2]; Cpsoralen 75 μM, mean
  Relative residual activity (ciprofol metabolism): 43.05%
[2]; Cpsoralen 100 μM
  Relative residual activity (ciprofol metabolism): 29.87% and 38.51% and 22.31%
[2]; Cpsoralen 100 μM, mean
  Relative residual activity (ciprofol metabolism): 30.23%
[2]; Cpsoralen 150 μM
  Relative residual activity (ciprofol metabolism): 15.05% and 20.24% and 25.14%
[2]; Cpsoralen 150 μM, mean
  Relative residual activity (ciprofol metabolism): 20.14%
[2]; Cpsoralen 200 μM
  Relative residual activity (ciprofol metabolism): 14.67% and 20.19% and 12.3%
[2]; Cpsoralen 200 μM, mean
  Relative residual activity (ciprofol metabolism): 15.72%
SD rats
  prolongation of duration of LORR compared with control group: 16.1%
[3]
  IC50: 34 µM
  degree of inhibitory effect on ciprofol metabolism: mild inhibitory effects
[3]; Cpsoralen 5 μM
  Relative residual activity (ciprofol metabolism): 85.57% and 90.39% and 83.88%
[3]; Cpsoralen 5 μM, mean
  Relative residual activity (ciprofol metabolism): 86.61%
[3]; Cpsoralen 12.5 μM
  Relative residual activity (ciprofol metabolism): 76.45% and 75.70% and 82.09%
[3]; Cpsoralen 12.5 μM, mean
  Relative residual activity (ciprofol metabolism): 78.08%
[3]; Cpsoralen 25 μM
  Relative residual activity (ciprofol metabolism): 55.36% and 59.73% and 68.81%
[3]; Cpsoralen 25 μM, mean
  Relative residual activity (ciprofol metabolism): 61.30%
[3]; Cpsoralen 50 μM
  Relative residual activity (ciprofol metabolism): 40.24% and 31.49% and 40.07%
[3]; Cpsoralen 50 μM, mean
  Relative residual activity (ciprofol metabolism): 37.27%
[3]; Cpsoralen 75 μM
  Relative residual activity (ciprofol metabolism): 32.40% and 26.96% and 29.47%
[3]; Cpsoralen 75 μM, mean
  Relative residual activity (ciprofol metabolism): 29.61%
[3]; Cpsoralen 100 μM
  Relative residual activity (ciprofol metabolism): 17.05% and 23.45% and 21.45%
[3]; Cpsoralen 100 μM, mean
  Relative residual activity (ciprofol metabolism): 20.65%
[3]; Cpsoralen 200 μM
  Relative residual activity (ciprofol metabolism): 6.19% and 12.50% and 10.40%
[3]; Cpsoralen 200 μM, mean
  Relative residual activity (ciprofol metabolism): 9.70%

## CO[C@H]1/C=C/O[C@@]2(C)Oc3c(C)c(O)c4c(O)c(c(/C=N/N5CCN(C)CC5)c(O)c4c3C2=O)NC(=O)/C(C)=C\C=C\[C@H](C)[C@H](O)[C@@H](C)[C@@H](O)[C@@H](C)[C@H](OC(C)=O)[C@@H]1C [rifampicin]
Ciprofol metabolism
  clinical effect on ciprofol metabolism: no clinical effect
